Measured values as given in patent EP0167954A2, “1-Hydroxy-cytorhodines, a microbiological method for their preparation and their use as cytostatic agents” (HOECHST AKTIENGESELLSCHAFT, priority 1984, dated 1986).
In brackets after ≈: the same amount, converted by molar mass. Like-named read-outs stand apart in the source and are kept apart here.

Assays:
[1] = tested on: L1210 Leukämiezellen der Maus; test: Proliferation assay (incorporation of C14-labelled thymidine); format: cell-based; conditions: Mus musculus
Description: (§1) Die Bestimmung der zytostatischen Wirksamkeit der hier beschriebenen Verbindungen erfolgte an L1210 Leukämiezellen der Maus. Im einzelnen wurden folgende Testsysteme verwendet:
Bei dieser Methode wird in vitro nach Inkubation der Zellen mit unterschiedlichen Konzentrationen der Testsubstanz ermittelt, inwieweit die Zellen radioaktive DNA-Vorläufer (z.B. C14 markiertes Thymidin) einbauen können. Unbehandelte L1210 Zellen werden den gleichen Testbedingungen unterworfen und dienen als Kontrolle. Im folgenden ist die Methode kurz beschrieben.
L1210 Zellen in exponentieller Wachstumsphase (5 x 10^3/ml in RPMI 1640) werden in einer Mikrotiterplatte 72 Stunden mit unterschiedlichen Konzentrationen der Testsubstanz inkubiert (37°C, 5 % C021 95 % relative Luftfeuchte). Kontrolle bestehen aus Zellen, die lediglich mit frischem Medium inkubiert werden. Alle Bestimmungen werden als 4fach Bestimmungen durchgeführt. Nach 65 Stunden werden 50 µl C-1 14 Thymidin (1,5 µc/ml) zugegeben, um die DNA der Zelle radioaktiv zu markieren. Nach 7 Stunden Inkubation werden die Zellen abgesaugt, die DNA mit 5%iger Trichloressigsäure gefällt und nacheinander mit Wasser bzw. Methanol gewaschen.
Nach Trocknung bei 50°C wird die in die DNA eingebaute Radioaktivität nach Zugabe von 5 ml Szintillationsflüssigkeit ermittelt.
Die Ergebnisse werden angegeben als Verhältnis des Szintillationsindex nach Inkubation mit der Testsubstanz in Prozent der unbehandelten Kontrolle. Aus den so erhaltenen Meßwerten wird die Dosiswirkungskurve ermitelt und graphisch die IC50, d.h. die Konzentration, die unter Testbedingungen den Einbau von radioaktivem Thymidin um 50 % gegenüber der Kontrolle erniedrigt, ermittelt. Die IC50 Werte der hier beschriebenen Verbindungen im Vergleich zu Adriamycin (ADM) werden in der Tabelle 1 zusammengefaßt.

L1210 Leukämiezellen = test: Colony formation of L1210 leukaemia cells in soft agar; format: cell-based, Maus; conditions: Mus musculus
Description: as §1
b) Koloniebildung von L1210 Leukämiezellen in soft agar.
Diese Methode dient zum Nachweis eines Einflusses der Testsubstanzen auf das Wachstumsverhalten der Zellen über mehrere Generationen (bei einer Zellzykluszeit von 10-12 Stunden werden in der Testzeit von 7 Tagen ca. 14 aufeinanderfolgende Generationen beobachtet).
Zytostatisch wirksame Substanzen bewirken in diesem Test eine Reduktion der zu beobachtenden Koloniezahl gegenüber einer unbehandelten Kontrolle. Im einzelnen wird der Test wie folgt durchgeführt:
500 Leukämiezellen pro Platte werden mit unterschiedlichen Konzentrationen von Testsubstanz 1 Stunde bei 37°C inkubiert. Anschließend werden die Zellen zweimal mit McCoy5A Medium gewaschen und schließlich in Petrischalen nach Zusatz von 0,3 % Agar ausgegossen. Kontrollen werden lediglich mit frischem Medium inkubiert. Anstelle der lstündigen Inkubation werden in manchen Fällen unterschiedliche Konzentrationen und Testsubstanz der oberen Agarschicht zugemischt, um so eine kontinuierliche Exposition der Zellen über die gesamte Inkubationszeit zu erreichen. Nach Erstarren des Agars werden die Platten im Brutschrank 7 Tage bei 37°C inkubiert (5 % C02, 95 % relative Luftfeuchtigkeit). Anschließend wird die Anzahl der entstandenen Kolonien mit einem Durchmesser 60 p gezählt. Die Ergebnisse werden angegeben als Koloniezahl in behandelten Agarplatten in Prozent der unbehandelten Kontrolle. Aus der so erhaltenen Dosiswirkungskurve wird die IC50 als Maß für die Wirksamkeit der Substanz ermittelt. Die Ergebnisse für die hier beschriebenen Verbindungen im Vergleich zu Adriamycin sind in der Tabelle 1 zusammengefaßt.

[2] = L1210, read-out: Proliferationstest IC50
[3] = L1210, 168 h, read-out: Koloniebildungstest IC50, 7 Tage Inkubation
[4] = L1210, read-out: Koloniebildungstest IC50, 1 Stunde Inkubation

| SMILES | IC50 [1, 2] | IC50 (L1210 Leukämiezellen; [3]) | IC50 (L1210 Leukämiezellen; [4]) | IC50 ([1]; L1210 cells, 72 h incubation with test substance, C14 thymidine added after 65 h, IC50 read graphically, read-out: Proliferationstest IC50) | IC50 (L1210 Leukämiezellen; 168 h, L1210 cells in soft agar, continuous exposure (substance mixed into upper agar layer), 7 days at 37°C, read-out: Koloniebildungstest IC50, 7 Tage Inkubation) | IC50 (L1210 Leukämiezellen; L1210 cells, 1 h incubation with substance at 37°C, washed, then 7 days in soft agar, read-out: Koloniebildungstest IC50, 1 Stunde Inkubation) |
| --- | --- | --- | --- | --- | --- | --- |
| CCC1(O)CC(OC2CC(N(C)C)C(OC3CCC(OC4CCC(O)C(C)O4)C(C)O3)C(C)O2)c2c(O)c3c(c(O)c2C1OC1CC(N(C)C)C(OC2CCC(OC4CCC(O)C(C)O4)C(C)O2)C(C)O1)C(=O)c1c(O)ccc(O)c1C3=O (stereo not drawn) [1-OH-Cytorhodin A, 1-Hydroxy-Cytorhodin A] | 3 ng/mL (≈ 2.56 nM) | 2.8 ng/mL (≈ 2.39 nM) | 26 ng/mL (≈ 22.2 nM) | – | – | – |
| CCC1(O)CC(OC2CC(N(C)C)C(OC3CCC(OC4C=CC(=O)C(C)O4)C(C)O3)C(C)O2)c2c(O)c3c(c(O)c2C1OC1CC(N(C)C)C(OC2CCC(OC4CCC(O)C(C)O4)C(C)O2)C(C)O1)C(=O)c1c(O)ccc(O)c1C3=O (stereo not drawn) [1-OH-Cytorhodin V, 1-Hydroxy-Cytorhodin V] | – | – | – | 2.8 ng/mL (≈ 2.39 nM) | 0.45 ng/mL (≈ 0.385 nM) | 2.4 ng/mL (≈ 2.05 nM) |
| COc1cccc2c1C(=O)c1c(O)c3c(c(O)c1C2=O)C[C@@](O)(C(=O)CO)C[C@@H]3O[C@H]1C[C@H](N)[C@H](O)[C@H](C)O1 [ADM, Adriamycin, reference compound] | 6 ng/mL (≈ 11 nM) | 22 ng/mL (≈ 40.5 nM) | 44 ng/mL (≈ 81 nM) | – | – | – |
